Results taken from article PMC10290391, “Targeted degradation of ⍺-synuclein aggregates in Parkinson’s disease using the AUTOTAC technology” (Molecular Neurodegeneration, 2023).
≈ marks a conversion by molar mass, not a printed value.

What was measured:
[1] = target: α-syn amyloids; parameters: method as in PMID 17597573; conditions: cited from earlier work
[2] = Pharmacokinetics of ATL compounds after oral administration in ICR male mice; type: in vivo; conditions: 5 mg/kg oral
Experimental: Supplementary file 13024_2023_630_MOESM1_ESM.eps: Additional file 1: Supplementary figure 1. Drug profiles of ATL and Autotac compounds. A, drug profiles of ATL compounds. Tissue concentrations and oral bioavailability were measured in ICR male mice upon 5 mg/kg oral administration of each ATL compound. B, structures of ATC161~164. C, Pharmacokinetic study of ATC161 conducted in male ICR mice otherwise indicated. M.W. represents molecular weight. The plasma exposure and the half-life were determined upon either POor IPATC161 administration. The drug tissue exposure was determined in Tau301L BiFC mice. IV refers to intravenous injection.

[3] = Solubility; type: physicochemical; conditions: pH 7.4
[4] = Plasma stability; type: in vitro ADME; conditions: after 120 min
[5] = target: Tyr residues of α-syn; parameters: method as in PMID 15096521; conditions: cited from earlier work
[6] = test system: HEK293A cells transduced with h-α-syn PFFs; experiment: Immunocytochemistry in HEK293A cells transduced with h-α-syn PFFs; type: cell-based, human; conditions: 1 μM, 24 h
Experimental: Recombinant human α-syn (1–140) were obtained from NKMAX (SNA2001L). In vitro fibrillization was performed by diluting recombinant α-syn monomers to 1 mg/mL in sterile PBS, then incubating at 37 °C with constant agitation at 1,000 rpm for seven days. The fibrillization was verified by thioflavin T and sedimentation assays. The ability to form phospho-α-syn (S129) was also assessed by immunocytochemistry. In addition, to determine whether the generated PFFs act as seeds to accumulate endogenous α-syn, an adenovirus that expresses c-Myc-His-tagged human α-syn (gifted from lab of S.J.L) was used to infect cultured cells at an MOI of 10, followed by a fractionation assay. The administration of PFFs into 293A cells was done with protein delivery reagent (BioPORTER QuikEase Protein Delivery Kit, Sigma) following the provider’s instruction. The mouse α-syn PFFs were obtained from StressMarq (SPR-324). Prior to treatment, PFFs were sonicated at 20% amplitude, 1 s pulse on and off for 30 s (SONICS Vibra Cell sonicator, Merck Z412619). For cells, α-syn monomers and PFFs were transduced at 1 µg/mL.
Cells were fixed with 4% paraformaldehyde (PFA) for 20 min at room temperature, followed by permeabilization with 0.1% Triton X-100 buffer for 15 min. The cells were blocked with 2% bovine serum albumin (BSA) in PBS for 1 h at room temperature. Then, the cells were incubated with primary antibodies diluted in the blocking buffer overnight at 4 °C. After washing with PBS, the slides were incubated with AlexaFluor-conjugated secondary antibodies for 1 h at room temperature. After mounting the slides with mounting solution containing DAPI, the images were captured on an LSM700 confocal microscopy (Carl Zeiss).

[7] = target: T1, p62 and α-syn aggregates (Homo sapiens, UniProt P37840+Q13501); experiment: Proximity ligation assay (PLA) of p62 and α-syn in HEK293A cells; type: cell-based; conditions: α-syn PFF-transduced cells; 1 μM, 6 h
T1 construct: Recombinant human α-syn (1–140) were obtained from NKMAX (SNA2001L); endogenous in cells; host or cells: HEK293A cells transduced with h-α-syn PFFs
Experimental: Proximity ligation assays were conducted using a PLA kit (Sigma-Aldrich) according to the manufacturer’s protocol. 293A Cells were seeded on coverslips and cultured for 24 h. After fixation with 4% PFA, the cells were permeabilized with 0.1% Triton X-100. The cells were incubated with antibodies for p62 (Abcam; ab56319) and alpha-synuclein aggregates (Abcam; ab209538) overnight at 4 °C. After washing with PLA washing buffer, the cells were hybridized, ligated and amplified by rolling circle. Coverslips were mounted on slides using mounting medium containing DAPI, and the images were captured by confocal microscopy (Zeiss).

[8] = test system: p62; experiment: p62 self-oligomerization and LC3 synthesis/lipidation by ATLs (in vitro p62 aggregation assay, rat cortex primary neurons); type: cell-based; conditions: ATL7, ATL13, ATL21 compared; 1 μM, 24 h in neurons, 1 mM in lysates

Question: Which Kd [1] does the source give for Oc1ccc(/C=C/c2cc(O)cc(O)c2)cc1 [resveratrol] here?
Answer: The Kd was 36.8 µM.

Question: For OCCNC[C@@H](O)COc1ccc(OCc2ccc(F)cc2)c(OCc2ccc(F)cc2)c1 [ATL21, (R)-1-(3,4-bis((4-fluorobenzyl)oxy)phenoxy)-3-((2hydroxyethyl)amino)propan-2-ol], which AUC(0-t) ([2]; mouse, plasma, read-out: oral bioavailability, AUClast) is on record?
Answer: The AUC(0-t) was 2590 ng·h/mL.

Question: With OCCNCc1cccc(OCc2ccc(F)cc2)c1 [ATL13, 2-((3-((4-fluorobenzyl)oxy)benzyl)amino)ethan-1-ol] as the compound, how does the solubility [3] read?
Answer: Its solubility is 106 µg/mL (≈ 383 µM).

Question: And the “plasma stability, remaining” value [4]?
Answer: The value was 96.3%.

Question: Which Kd [5] does the source give for O=c1cc(-c2ccccc2)oc2cc(O)c(O)c(O)c12 [baicalein] here?
Answer: Its Kd is 500 nM.

Question: With OCCNCc1ccc(OCc2ccccc2)c(OCCCc2ccccc2)c1 [ATL7, 2-((4-(benzyloxy)-3-(3-phenylpropoxy)benzyl)amino)ethan-1-ol] as the compound, how does the AUClast in brain [2] read?
Answer: Its AUClast in brain is 722.9 ng·h/g.

Question: What about the Kp ([2]; mouse, brain and plasma, brain vs plasma AUClast, read-out: B/P ratio) of the same compound?
Answer: The Kp was ~3.

Question: What about the “increase in number of p62+LC3+ colocalizing puncta” value [6] of the same compound?
Answer: Its value is “approximately 81%”.

Question: And the “targeting of α-syn to LC3+ autophagic membranes” value ([6]; absence and presence of bafilomycin A1)?
Answer: The value was “did not show significant activities”.

Question: What about the “interaction between p62 and α-syn aggregates (PLA puncta)” value [7] of the same compound?
Answer: Its value is “failed to enhance the interaction between p62 and α-syn aggregates”.

Question: What about the “relative activity to induce p62 self-oligomerization and LC3 synthesis and lipidation” value [8] of the same compound?
Answer: Its value is “highest activities”.
